Patent US20090227619A1, “Harmine derivatives, intermediates used in their preparations, preparation processes and use therefo” (priority 2003, published 2009)
Like-named read-outs stand apart in the source and are kept apart here.

Legend:
Lewis lung cancer = details: for Body weight of the animals, end, First time / Body weight of the animals, end, Second time / Body weight of the animals, beginning, First time / Inhibition rate, First time / Weight of the tumor X ± SD, First time / Body weight of the animals, beginning, Second time / Inhibition rate, Second time / Weight of the tumor X ± SD, Second time / Inhibition rate (%) Lewis cancer: Lewis lung cancer; for Body weight of the animals, end, First time / Body weight of the animals, end, Second time: ip × 10qd; for Inhibition rate (%) Lewis cancer: comparison table 43, in vivo;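 for all read-outs here: mice implanted subcutaneously in the axilla with Lewis lung tumor cells, treated starting the following day, killed roughly three weeks after implantation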
Text: There was one group of 8 to 10 mice C57BL/6 and Kunming mice for the anti-tumor tests and two groups of mice for negative control.
(3) Sources of tumors: Lewis lung cancer cells and S180 sarcoma in mice, which were sub-cultured and maintained by Pharmacological Center of Shanghai Pharmaceutical Industrial Research Institute.
All samples were weighed and added a small amount of Tween-80 to facilitate dissolution during the experiment, and then 0.5% CMC-Na solution was gradually added to achieve the desired concentration. The volume for experiment was 0.5 ml/20 g mouse.
The medicaments were intraperitoneally administered once a day continuously for 10 days.
For the negative control group, a vehicle of the same volume was intraperitoneally administered once a day continuously for 10 days. For the positive control group, CTX was administered in the dosage of 30 mg/kg once a day continuously for 7 days.
In vivo anti-tumor subcutaneous vaccination in the axilla was employed. Wildly grown tumor source was taken under sterile conditions to form a cell suspension of about 1×10^7 ml by homogenization method. For a corresponding mouse host, the suspension was injected in the axilla in an amount of 0.2 ml/mouse. The next day, the medicaments were administered according to the design of the tests. About three weeks later, all the groups of animals were executed. The tumors were taken from the animals and weighed. The inhibition rate of tumors was calculated according to the following formula:
T: average tumor weight of treated group; C: average tumor weight of negative control group.

S180 sarcoma = details: S180 sarcoma; for Body weight of the animals, beginning, First time / Body weight of the animals, end, First time / Inhibition rate, First time / Weight of the tumor X ± SD, First time / Body weight of the animals, beginning, Second time / Body weight of the animals, end, Second time / Inhibition rate, Second time: ip × 10qd; for Inhibition rate (%) S180 sarcomata: comparison table 43, in vivo
Hela = assay: In vitro cytotoxicity, IC50 by MTT method, Hela; format: cell-based; details: Homo sapiens
Method in brief: (§1)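 Cells in RPMI1640 with 10% FBS at 37° C, 5% CO2 were seeded at 10^5/ml and exposed to a compound concentration gradient for 48 h, at least three replicates, solvent controls.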

Kunming mice [1] = details: summary Table 34, compounds marked *, results [153] of the previous tests; in mg/kg; cited from earlier work
Lovo = assay: In vitro cytotoxicity, IC50 by MTT method, Lovo; format: cell-based; details: Homo sapiens
Method in brief: as §1

NIH3T3 = assay: In vitro cytotoxicity, IC50 by MTT method, NIH3T3; format: cell-based; details: Mus musculus
Method in brief: as §1

PLA-801 = assay: In vitro cytotoxicity, IC50 by MTT method, PLA-801; format: cell-based
Method in brief: as §1

HepG2 = assay: In vitro cytotoxicity, IC50 by MTT method, HepG2; format: cell-based, human; details: Homo sapiens
Method in brief: as §1

Bel-7402 = assay: In vitro cytotoxicity, IC50 by MTT method, Bel-7402; format: cell-based; details: Homo sapiens, Bel-7402
Method in brief: as §1

BGC-823 = assay: In vitro cytotoxicity, IC50 by MTT method, BGC-823; format: cell-based; details: Homo sapiens, BGC-823
Method in brief: as §1

[2] = Solubility (physico-chemical data tables); details: qualitative; Table 12, 3,9-disubstituted β-carboline derivatives
Kunming mice [3] = details: for Death rate: single i.p.
Experimental: (§2) Five grades of dosages for each sample according to the results of the preliminary test, each dosage being 0.8 larger than the previous one
(§3) During the experiment, each sample was added a small amount of Tween-80 to facilitate dissolution after the sample was weighed, and then 0.5% CMC-Na solution was gradually added to achieve the desired concentration. The experimental volume was 0.5 ml/20 g mouse.
(§4) Single injection via intraperitoneal (i.p.) to different groups mice.
(§5) Kunming mice were divided into different groups randomly according to their sex. The medicament was intraperitoneally administered to each group of mice according to the dosage setting. After the administration of the medicaments, mice were observed continuously for the first 2 h for any gross behavioral changes and deaths. Dead animals were dissected and examined for any possible organ damage. […] Conditions of animals died within two week were recorded. After two weeks, all survived animals were sacrificed and checked macroscopically for possible damage to the heart, liver, kidneys and so on. Viscera that had substantive pathological changes were pathologically examined.

CT-DNA = assay: UV absorption spectrum method with CT-DNA; format: binding; details: CT-DNA 40 ug/ml, compound 20 uM, 37° C. for 2 h, OD at 260 nm
in vivo = details: both, Kunming, mouse, ip
Experimental: as §2, §3, §4, §5

[4] = Hela cell strain, read-out: IC50 Hela
[5] = Lovo cell strain, read-out: IC50 Lovo
[6] = NIH3T3 cell strain, read-out: IC50 NIH3T3
[7] = PLA-801 cell strain, read-out: IC50 PLA-801
[8] = HepG2 cell strain, read-out: IC50 HepG2
[9] = Bel7402 cell strain, read-out: IC50 Bel7402
[10] = BGC823 cell strain, read-out: IC50 BGC823
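Throughout, for Death rate: acute toxicity in Kunming mice grouped by sex, one intraperitoneal dose at five graded levels in Tween-80 plus 0.5% CMC-Na, deaths monitored over two weeks.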

O=C(O)c1cc2c(cn1)[nH]c1ccccc12 [Compound 17, β-carboline-3-carboxylic acid]
Body weight of the animals, end, First time (Lewis lung cancer; Dosage 50 (mg/ml)): 25.4 g | Body weight of the animals, end, Second time (Lewis lung cancer; Dosage 50 (mg/ml)): 25.4 g | Body weight of the animals, beginning, First time (Lewis lung cancer; Dosage 50, ip × 10qd): 19.2 g | Inhibition rate, First time (Lewis lung cancer; Dosage 50, ip × 10qd): 31.40% | Weight of the tumor X ± SD, First time (Lewis lung cancer; Dosage 50, ip × 10qd): 2.01 ± 0.28 g | Body weight of the animals, beginning, Second time (Lewis lung cancer; Dosage 50, ip × 10qd): 20.2 g | Inhibition rate, Second time (Lewis lung cancer; Dosage 50, ip × 10qd): 27.98% | Weight of the tumor X ± SD, Second time (Lewis lung cancer; Dosage 50, ip × 10qd): 1.75 ± 0.09 g | Body weight of the animals, end, First time (Lewis lung cancer; Dosage 100 (mg/ml)): 24.8 g | Body weight of the animals, end, Second time (Lewis lung cancer; Dosage 100 (mg/ml)): 24.9 g | Body weight of the animals, beginning, First time (Lewis lung cancer; Dosage 100, ip × 10qd): 19.0 g | Inhibition rate, First time (Lewis lung cancer; Dosage 100, ip × 10qd): 37.20% | Weight of the tumor X ± SD, First time (Lewis lung cancer; Dosage 100, ip × 10qd): 1.84 ± 0.48 g | Body weight of the animals, beginning, Second time (Lewis lung cancer; Dosage 100, ip × 10qd): 20.4 g | Inhibition rate, Second time (Lewis lung cancer; Dosage 100, ip × 10qd): 37.86% | Weight of the tumor X ± SD, Second time (Lewis lung cancer; Dosage 100, ip × 10qd): 1.51 ± 0.09 g | Inhibition rate (%) Lewis cancer (Lewis lung cancer): 33.4% | Body weight of the animals, beginning, First time (S180 sarcoma; Dosage 50 (mg/ml)): 19.2 g | Body weight of the animals, end, First time (S180 sarcoma; Dosage 50 (mg/ml)): 24.7 g | Inhibition rate, First time (S180 sarcoma; Dosage 50 (mg/ml)): 23.97% | Weight of the tumor X ± SD, First time (S180 sarcoma; Dosage 50 (mg/ml)): 2.03 ± 0.24 g | Body weight of the animals, beginning, Second time (S180 sarcoma; Dosage 50 (mg/ml)): 18.5 g | Body weight of the animals, end, Second time (S180 sarcoma; Dosage 50 (mg/ml)): 25.9 g | Inhibition rate, Second time (S180 sarcoma; Dosage 50 (mg/ml)): 25.19% | Weight of the tumor X ± SD, Second time (S180 sarcoma; Dosage 50, ip × 10qd): 2.02 ± 0.21 g | Body weight of the animals, beginning, First time (S180 sarcoma; Dosage 100 (mg/ml)): 19.3 g | Body weight of the animals, end, First time (S180 sarcoma; Dosage 100 (mg/ml)): 24.2 g | Inhibition rate, First time (S180 sarcoma; Dosage 100 (mg/ml)): 35.21% | Weight of the tumor X ± SD, First time (S180 sarcoma; Dosage 100 (mg/ml)): 1.73 ± 0.16 g | Body weight of the animals, beginning, Second time (S180 sarcoma; Dosage 100 (mg/ml)): 18.6 g | Body weight of the animals, end, Second time (S180 sarcoma; Dosage 100 (mg/ml)): 25.3 g | Inhibition rate, Second time (S180 sarcoma; Dosage 100 (mg/ml)): 32.96% | Weight of the tumor X ± SD, Second time (S180 sarcoma; Dosage 100, ip × 10qd): 1.81 ± 0.20 g | Inhibition rate (%) S180 sarcomata (S180 sarcoma): 32.2% | IC50 (Hela; Hela, MTT, read-out: IC50): 220 µM | LD50 (Kunming mice [1]): 135.22 | IC50 (Lovo; Lovo, MTT, read-out: IC50): 170 µM | IC50 (NIH3T3; NIH3T3, MTT, read-out: IC50): 60 µM | IC50 (PLA-801; PLA-801, MTT, read-out: IC50): 300 µM | IC50 (HepG2; HepG2, MTT, read-out: IC50): 280 µM | IC50 (Bel-7402; BeI7402, MTT, read-out: IC50): 230 µM | IC50 (BGC-823; BGC823, MTT, read-out: IC50): 280 µM

COC(=O)c1cc2c3ccccc3n(C)c2cn1 [Compound 26, methyl 9-methyl-β-carboline-3-carboxylate]
Inhibition rate (%) Lewis cancer (Lewis lung cancer): 35.0% | Inhibition rate (%) S180 sarcomata (S180 sarcoma): 31.1% | IC50 (Hela; [4]): 180 µM | LD50 (Kunming mice [1]): 70.61 | IC50 (Lovo; [5]): 180 µM | IC50 (NIH3T3; [6]): 90 µM | IC50 (PLA-801; [7]): 120 µM | IC50 (HepG2; [8]): 120 µM | IC50 (Bel-7402; [9]): 190 µM | IC50 (BGC-823; [10]): 180 µM

CCn1c2ccccc2c2cc(C(=O)OC)ncc21 [Compound 27, methyl 9-ethyl-β-carboline-3-carboxylate]
Anti-tumor activity compared with harmine (compound 1) (Lewis lung cancer; Lewis lung cancer in mice, among 22 compounds tested): a little worse than or equivalent to that of harmines | Inhibition rate (%) Lewis cancer (Lewis lung cancer): 30.5% | Inhibition rate (%) S180 sarcomata (S180 sarcoma): 29.0% | IC50 (Hela; [4]): 210 µM | LD50 (Kunming mice [1]): 95.06 | IC50 (Lovo; [5]): 110 µM | IC50 (NIH3T3; [6]): 130 µM | IC50 (PLA-801; [7]): 290 µM | IC50 (HepG2; [8]): 160 µM | IC50 (Bel-7402; [9]): 530 µM | IC50 (BGC-823; [10]): 250 µM

O=C(O)c1cc2c3ccccc3n(Cc3ccccc3)c2cn1 [Compound 37, 9-benzyl-β-carboline-3-carboxylic acid]
Body weight of the animals, end, First time (Lewis lung cancer; Dosage 25 (mg/ml)): 24.1 g | Body weight of the animals, end, Second time (Lewis lung cancer; Dosage 25 (mg/ml)): 24.9 g | Body weight of the animals, beginning, First time (Lewis lung cancer; Dosage 25, ip × 10qd): 18.6 g | Inhibition rate, First time (Lewis lung cancer; Dosage 25, ip × 10qd): 27.09% | Weight of the tumor X ± SD, First time (Lewis lung cancer; Dosage 25, ip × 10qd): 1.83 ± 0.17 g | Body weight of the animals, beginning, Second time (Lewis lung cancer; Dosage 25, ip × 10qd): 19.6 g | Inhibition rate, Second time (Lewis lung cancer; Dosage 25, ip × 10qd): 29.24% | Weight of the tumor X ± SD, Second time (Lewis lung cancer; Dosage 25, ip × 10qd): 1.67 ± 0.16 g | Body weight of the animals, end, First time (Lewis lung cancer; Dosage 50 (mg/ml)): 23.9 g | Body weight of the animals, end, Second time (Lewis lung cancer; Dosage 50 (mg/ml)): 24.3 g | Body weight of the animals, beginning, First time (Lewis lung cancer; Dosage 50, ip × 10qd): 18.9 g | Inhibition rate, First time (Lewis lung cancer; Dosage 50, ip × 10qd): 39.04% | Weight of the tumor X ± SD, First time (Lewis lung cancer; Dosage 50, ip × 10qd): 1.53 ± 0.14 g | Body weight of the animals, beginning, Second time (Lewis lung cancer; Dosage 50, ip × 10qd): 19.5 g | Inhibition rate, Second time (Lewis lung cancer; Dosage 50, ip × 10qd): 43.22% | Weight of the tumor X ± SD, Second time (Lewis lung cancer; Dosage 50, ip × 10qd): 1.34 ± 0.14 g | Inhibition rate (%) Lewis cancer (Lewis lung cancer): 43.22% | Solubility [2]: soluble in DMSO | Body weight of the animals, beginning, First time (S180 sarcoma; Dosage 25 (mg/ml)): 19.6 g | Body weight of the animals, end, First time (S180 sarcoma; Dosage 25 (mg/ml)): 26.9 g | Inhibition rate, First time (S180 sarcoma; Dosage 25 (mg/ml)): 23.86% | Weight of the tumor X ± SD, First time (S180 sarcoma; Dosage 25 (mg/ml)): 2.17 ± 0.18 g | Body weight of the animals, beginning, Second time (S180 sarcoma; Dosage 25 (mg/ml)): 20.4 g | Body weight of the animals, end, Second time (S180 sarcoma; Dosage 25 (mg/ml)): 25.1 g | Inhibition rate, Second time (S180 sarcoma; Dosage 25 (mg/ml)): 24.21% | Weight of the tumor X ± SD, Second time (S180 sarcoma; Dosage 25, ip × 10qd): 2.16 ± 0.27 g | Body weight of the animals, beginning, First time (S180 sarcoma; Dosage 50 (mg/ml)): 19.7 g | Body weight of the animals, end, First time (S180 sarcoma; Dosage 50 (mg/ml)): 26.3 g | Inhibition rate, First time (S180 sarcoma; Dosage 50 (mg/ml)): 34.39% | Weight of the tumor X ± SD, First time (S180 sarcoma; Dosage 50 (mg/ml)): 1.87 ± 0.13 g | Body weight of the animals, beginning, Second time (S180 sarcoma; Dosage 50 (mg/ml)): 20.6 g | Body weight of the animals, end, Second time (S180 sarcoma; Dosage 50 (mg/ml)): 24.7 g | Inhibition rate, Second time (S180 sarcoma; Dosage 50 (mg/ml)): 32.98% | Weight of the tumor X ± SD, Second time (S180 sarcoma; Dosage 50, ip × 10qd): 1.91 ± 0.23 g | Inhibition rate (%) S180 sarcomata (S180 sarcoma): 34.39% | IC50 (Hela; [4]): 90 µM | Death rate (Kunming mice [3]; 50% male 50% female mice, 240 mg/kg): 100 | Death rate (Kunming mice [3]; 50% male 50% female mice, 300 mg/kg): 100 | Death rate (Kunming mice [3]; female mice, 240 mg/kg): 100 | Death rate (Kunming mice [3]; female mice, 300 mg/kg): 100 | Death rate (Kunming mice [3]; male mice, 240 mg/kg): 100 | Death rate (Kunming mice [3]; male mice, 300 mg/kg): 100 | LD50 (Kunming mice [3]; mouse, in vivo, ip): 142 to 189 mg/kg | IC50 (Lovo; [5]): 40 µM | Influence on the UV absorption of DNA (CT-DNA): increase the UV absorption of DNA | IC50 (NIH3T3; [6]): 50 µM | IC50 (PLA-801; [7]): 100 µM | IC50 (HepG2; [8]): 100 µM | LD50 at 2 weeks (in vivo): 163 mg/kg | IC50 (Bel-7402; [9]): 110 µM | IC50 (BGC-823; [10]): 50 µM
